Experimental data published in patent publication US20230324392A1, “METHODS AND COMPOSITIONS FOR TARGETING CYTOSOLIC DSDNA SIGNALING IN CHROMOSOMALLY UNSTABLE CANCERS” (MEMORIAL SLOAN KETTERING CANCER CENTER, priority 2020, published 2023).
Values joined by “and” are separate entries in the source; they are usually repeats but may differ in a detail not shown here. Equal entries are not always repeated.

What was measured:
[1] = Blood counts of mice treated with C-176; format: in vivo, mouse; settings: for NEUT: reference range 9.86-39.11; for LYMPH: reference range 48.81-83.82
[2] = test system: CT26 cells; test: Tail vein inoculation of CT26 cells in BALB/c mice, metastasis and survival; format: in vivo, mouse
Procedure: Animal metastasis studies: Animal experiments were performed in accordance with protocols approved by the MSKCC Institutional Animal Care and Use Committee. […] There was no need to randomize animals. Investigators were not blinded to group allocation. For tail vein injections, 5×10^4 4T1, 2.5×10^4 B16F10, or 10^5 CT26 cells were injected into the tail vein of 6-7-week old BALB/c (4T1 and CT26) or C57BL/6 (B16F10) mice. Metastasis was primarily assessed through overall survival. Overall survival endpoint was met when the mice died or met the criteria for euthanasia under the IACUC protocol. Animals were censored when death was confirmed to have occurred due to metastasis-unrelated causes such as injury or death during injection, surgery, or anesthesia. Surface lung metastases were assessed at endpoint by direct visual examination after euthanasia at which points lungs were perfused and fixed in 4% paraformaldehyde (4T1 and B16F10 experiments) or stained using India-ink (CT26 experiments). […] H-151 was reconstituted in DMSO with concentration of 100 mM. Each mouse was injected intraperitoneally with 7.5 μL of H-151 stock solution in 200 μL of PBS with 0.1% Tween −80.

[3] = Blood chemistry of mice treated with C-176; format: in vivo, mouse; settings: animals 1, 2
[4] = test system: 4T1 cells; test: Tail vein inoculation of 4T1 cells in BALB/c mice, survival; format: in vivo, mouse; settings: 4T1, BALB/c, daily IP, vs vehicle
Procedure: Animal metastasis studies: Animal experiments were performed in accordance with protocols approved by the MSKCC Institutional Animal Care and Use Committee. […] There was no need to randomize animals. Investigators were not blinded to group allocation. For tail vein injections, 5×10^4 4T1, 2.5×10^4 B16F10, or 10^5 CT26 cells were injected into the tail vein of 6-7-week old BALB/c (4T1 and CT26) or C57BL/6 (B16F10) mice. Metastasis was primarily assessed through overall survival. Overall survival endpoint was met when the mice died or met the criteria for euthanasia under the IACUC protocol. […] Surface lung metastases were assessed at endpoint by direct visual examination after euthanasia at which points lungs were perfused and fixed in 4% paraformaldehyde (4T1 and B16F10 experiments) or stained using India-ink (CT26 experiments). Furthermore, lung metastasis after injection of 4T1 cells was qualitatively assessed using routine hematoxylin and eosin (H&E) staining. […] Primary tumors were surgically excised on day 7 after implantation and metastatic dissemination was assessed by monitoring overall survival or on day 30 through quantification of surface lung metastases upon euthanasia. The length (L) and width (W) of the primary tumors were measured using calipers. Tumor size was calculated according to the following formula: L*W2/2. […]

[5] = molecular target: T1, STING (Mus musculus, UniProt Q3TBT3); test: ISG expression in cGAMP-transfected Cgas-KO 4T1 cells with or without C-176; format: cell-based; settings: in the presence of C-176
T1 construct: endogenous in cells; host or cells: Cgas-KO 4T1 cells (mouse mammary carcinoma; parental line from ATCC)
T1 sequence (Q3TBT3 1-378): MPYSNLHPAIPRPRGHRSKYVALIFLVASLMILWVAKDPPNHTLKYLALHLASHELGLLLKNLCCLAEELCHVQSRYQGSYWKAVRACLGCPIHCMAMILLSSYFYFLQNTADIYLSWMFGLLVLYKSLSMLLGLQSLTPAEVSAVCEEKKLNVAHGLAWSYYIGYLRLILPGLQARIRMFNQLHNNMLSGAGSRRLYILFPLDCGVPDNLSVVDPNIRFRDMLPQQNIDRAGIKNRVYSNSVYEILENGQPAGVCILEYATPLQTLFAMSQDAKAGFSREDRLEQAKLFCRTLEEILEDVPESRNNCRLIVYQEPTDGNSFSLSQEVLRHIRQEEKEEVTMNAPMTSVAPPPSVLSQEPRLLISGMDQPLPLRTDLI
Procedure: Quantitative PCR for STING inhibition study: RNA was extracted from cells with Trizol (Invitrogen, Carlsbad, CA, #15596026). cDNA was synthesized using the RNA to cDNA EcoDry™ Premix (Double Primed) kit (Takara #639549). Real-time PCR was performed to measure the relative mRNA expression levels of ISGs and the control GAPDH using Luna® Universal qPCR Master Mix (NEB, IPSWICH, MA, M3003L). The qPCR reaction and analysis were performed on a QuantStudio 6 platform (Life technology, Carlsbad, CA). The sequence of primers for Ccl5 is 5′-[sequence]-3′ and 5′-[sequence]-3′. […] The sequence for primers for Gapdh is 5′-[sequence]-3′ and 5′-[sequence]-3′.

[6] = Tolerability of prolonged daily C-176 treatment, survival and necropsy; format: in vivo, mouse
Source text: In B16F10-bearing animals, nearly 30% of the treated group had no evidence of disease at 98 days (FIG. 4A). […] Thus, the therapeutic effect of the STING inhibitors on metastasis is primarily mediated through inhibition of cancer cell-intrinsic STING.

[7] = test system: B16F10, 4T1, and CT26 cells; test: xCELLigence assay for cell invasion; format: cell-based, mouse; settings: C176 at 1 μM; all three metastatic cancer cell lines
Procedure: xCELLigence assayfor cell invasion: Assessment of the impact of STING inhibition on cell invasion was conducted using the xCELLigence system CIM plates (ACEA Biosciences, San Diego, CA). The upper chamber was coated with 1 mg/ml of growth factor complete Matrigel (#356234, Corning, UK) made up in serum free media (SFM) and incubated at 37° C. for 4 hours to allow polymerisation. A total of 4×10^4 cells in serum-free media were seeded into the upper chamber insert with C176 at 1 μM (Probechem, China) or DMSO control. The lower chamber was filled with complete media. The CIM plates were incubated at 1 hour at 37° C. and 5% C02 for cell attachment. Plates were then monitored using the xCELLigence system. Changes in impedance resulting from cell invasion to the underside of wells were recorded every 15 minutes and monitored for a total of 60 hours.

[8] = automated differential, animals 1, 2
[9] = complete blood count, animals 1, 2
[10] = manual differential, animals 1, 2

For `O=C(Nc1ccc(I)cc1)c1ccc([N+](=O)[O-])o1` [C-176], the BASO ([1]; automated differential, animals 1, 2, reference range 0.00-1.84) was 0% and 0.1%, the “EO#” value ([1]; automated differential, animals 1, 2, reference range 0.01-0.49) was 0.1 K/uL and 0.16 K/uL and the “MONO#” value ([1]; automated differential, animals 1, 2, reference range 0.21-1.37) was 0.22 K/uL and 0.25 K/uL. The “NEUT#” value ([1]; automated differential, animals 1, 2, reference range 0.58-3.83) was 2.98 K/uL and 4.69 K/uL, the “LYMPH#” value ([1]; automated differential, animals 1, 2, reference range 2.22-11.56) was 3.35 K/uL and 3.14 K/uL and the MONO ([1]; automated differential, animals 1, 2, reference range 3.29-14.33) was 3.3% and 3%. The “WBC#” value ([1]; automated differential, animals 1, 2, reference range 3.48-14.84) was 6.65 K/uL and 8.25 K/uL, the NEUT [1, 8] was 44.8% and 56.9% and the LYMPH [1, 8] was 50.4% and 38.1%. The EO ([1]; automated differential, animals 1, 2, reference range printed 7 0.07-4.91^) was 1.5% and 1.9%, the PDW [1, 9] was 9.9 fL and 10.3 fL and the RDW-SD [1, 9] was 29.1 fL and 29.6 fL. For the same compound, the RET ([1]; complete blood count, animals 1, 2, reference range 2.56-4.56) was 4.04% and 5.29%, the MPV ([1]; complete blood count, animals 1, 2, reference range 4.6-5.9) was 7 fL and 7.3 fL and the RBC ([1]; complete blood count, animals 1, 2, reference range 6.93-12.24) was 10.18 M/uL and 9.5 M/uL. For the same compound, the HGB ([1]; complete blood count, animals 1, 2, reference range 12.4-20.5) was 15.3 g/dL and 14.4 g/dL, the MCH ([1]; complete blood count, animals 1, 2, reference range 13.0-17.6) was 15 pg and 15.2 pg and the RDW-CV ([1]; complete blood count, animals 1, 2, reference range 16.9-23.5) was 25.4% and 24%. For the same compound, the MCHC ([1]; complete blood count, animals 1, 2, reference range 23.3-33.1) was 32.3 g/dL and 31.9 g/dL, the HCT ([1]; complete blood count, animals 1, 2, reference range 42.1-68.3) was 47.3% and 45.2% and the MCV ([1]; complete blood count, animals 1, 2, reference range 50.7-64.4) was 46.5 fL and 47.6 fL. For the same compound, the “RET#” value ([1]; complete blood count, animals 1, 2, reference range 294-444) was 411.3 K/uL and 502.6 K/uL, the PLT ([1]; complete blood count, animals 1, 2, reference range 420-1698) was 1137 K/uL and 1026 K/uL and the BAND ([1]; manual differential, animal 1) was 1%. For the same compound, the EO ([1]; manual differential, animals 1, 2, reference range 0.07-4.91) was 2% and 1%, the NEUT [1, 10] was 45% and 57% and the LYMPH [1, 10] was 52% and 42%. For the same compound, the “number of CT26 lung metastasis” value ([2]; 13 days after tail vein injection, daily IP) was “significant reduction”, the “survival of tumor bearing mice” value ([2]; CT26, BALB/c, IP, vs vehicle) was “significantly prolonged survival” and the “A/G Ratio” value [3] was 1.3 and 1.4. For the same compound, the “Anion Gap” value [3] was 26 and 32, the “BASELINE CORTISOL” value [3] was 0.811 and 0.662 and the “BUN/CREA Ratio” value [3] was 85.0 and 84.2. It also gave a DBIL [3] of 0.0 mg/dL, a GGT [3] of 0 U/L and an IBIL [3] of 0.1. The Na/K [3] was 19 and 16, the TCO2 [3] was 24 mEq/L and 18 mEq/L and the CREA ([3]; reference range 0.2-0.5) was 0.20 mg/dL and 0.19 mg/dL. The TBIL ([3]; reference range 0.2-0.6) was 0.1 mg/dL, the GLOB ([3]; reference range 1.7-2.2) was 2.3 g/dL and 1.9 g/dL and the ALB ([3]; reference range 2.4-4.3) was 3.1 g/dL and 2.6 g/dL. For the same compound, the TP ([3]; reference range 4.8-7.2) was 5.4 g/dL and 4.5 g/dL, the BUN ([3]; reference range 5.0-28) was 17 mg/dL and 16 mg/dL and the K ([3]; reference range 7.3-11.1) was 8.1 mEq/L and 9.7 mEq/L. For the same compound, the Ca ([3]; reference range 9.5-12.5) was 10.0 mg/dL and 9.9 mg/dL, the ALT ([3]; reference range 27-195) was 26 U/L and 32 U/L and the AST ([3]; reference range 54-77) was 134 U/L and 69 U/L. For the same compound, the CHOL ([3]; reference range 55-169) was 103 mg/dL and 93 mg/dL, the TRIG ([3]; reference range 67-289) was 82 mg/dL and 80 mg/dL and the ALP ([3]; reference range 105-370) was 61 U/L and 40 U/L. The CL ([3]; reference range 111-134) was 115 mEq/L and 113 mEq/L, the Na ([3]; reference range 145-181) was 157 mEq/L and 153 mEq/L and the GLU ([3]; reference range 172-372) was 205 mg/dL and 210 mg/dL. For the same compound, the “survival of tumor bearing mice” value [4] was “significantly prolonged survival”, the “effect on ISG induction by cGAMP transfection” value [5] was “suppressed” and the end-of-treatment necropsy ([6]; compared to vehicle-treated animals) was “no distinct pathologic abnormalities”. For the same compound, the “tolerability / clinically evident toxicity” value ([6]; prolonged daily treatment, vs vehicle-treated animals) was “well tolerated and did not lead to any clinically evident toxicity”, the “blood counts and blood chemistries” value ([6]; summary of Tables 9 and 10) was “within normal limits” and the baseline cortisol levels ([6]; vs vehicle) was “lower baseline cortisol levels”. The invasion [7] was “significant reductions”.
